From patent US20250171457A1, “NITROGEN-CONTAINING HETEROCYCLIC COMPOUND HAVING NRF2 ACTIVATION EFFECT” (CHUGAI SEIYAKU KABUSHIKI KAISHA, priority 2022, published 2025) come the findings set out here.

For this assay, the system named is Nrf2 transcriptional activity (pARE-Luc reporter) in HepG2 cells. In words: In vitro Nrf2 transcriptional activity measurement by ARE-dependent reporter assay in HepG2 cell. Type of assay: cell-based, human. Particulars: Homo sapiens; HepG2 cells transfected with pARE-Luc, 4 hours at 37° C.; luciferase activity of Example 1-54 or Example 17-23 at 3.75 μM defined as 100%. The procedure, abridged:
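HepG2 cells transfected with pGL4.37 (pARE-Luc), replated onto compound and incubated 4 h at 37° C; luciferase read by Bright-Glo luminescence. Response normalized to 100% set by a reference compound at 3.75 μM; EC50 from dose-response curve.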
A general note: In a reporter assay the amount or activity of a reporter protein is the signal.
Take `O=C(O)c1cc(F)c(-c2cccc3c2OCN(C(=O)c2c(Cl)cc(-c4cnc5n4CCC5)cc2Cl)C3)cc1N1C2CCC1COC2` [Compound 3-22, 4-[3-[2,6-Dichloro-4-(6,7-dihydro-5H-pyrrolo[1,2-a]imidazol-3-yl)benzoyl]-2,4-dihydro-1,3-benzoxazin-8-yl]-5-fluoro-2-(3-oxa-8-azabicyclo[3.2.1]octan-8-yl)benzoic acid]: the EC50 worked out at 21 nM.
Take `O=C(O)c1cc(F)c(-c2cccc3c2OCN(C(=O)c2c(Cl)cc(-c4cc5ccccc5o4)cc2Cl)C3)cc1N1C2CCC1COC2` [Compound 3-23, 4-[3-[4-(1-Benzofuran-2-yl)-2,6-dichlorobenzoyl]-2,4-dihydro-1,3-benzoxazin-8-yl]-5-fluoro-2-(3-oxa-8-azabicyclo[3.2.1]octan-8-yl)benzoic acid]: the EC50 stood at 21 nM.
Next, `O=C(O)c1cc(F)c(-c2cccc3c2OCN(C(=O)c2c(Cl)cc(-c4cccc5ccoc45)cc2Cl)C3)cc1N1C2CCC1COC2` [Compound 3-24, 4-[3-[4-(1-Benzofuran-7-yl)-2,6-dichlorobenzoyl]-2,4-dihydro-1,3-benzoxazin-8-yl]-5-fluoro-2-(3-oxa-8-azabicyclo[3.2.1]octan-8-yl)benzoic acid]: 31 nM; `O=C(O)c1cc(F)c(-c2cccc3c2OCN(C(=O)c2c(Cl)cc(-c4cncc5ccoc45)cc2Cl)C3)cc1N1C2CCC1COC2` [Compound 3-25, 4-[3-(2,6-Dichloro-4-furo[3,2-c]pyridin-7-ylbenzoyl)-2,4-dihydro-1,3-benzoxazin-8-yl]-5-fluoro-2-(3-oxa-8-azabicyclo[3.2.1]octan-8-yl)benzoic acid]: 7.7 nM.
As for `COc1ncc(-c2cc(Cl)c(C(=O)N3COc4c(cccc4-c4cc(N5C6CCC5COC6)c(C(=O)O)cc4F)C3)c(Cl)c2)c2nn(C)nc12` [Compound 3-26, 4-[3-[2,6-Dichloro-4-(4-methoxy-2-methyltriazolo[4,5-c]pyridin-7-yl)benzoyl]-2,4-dihydro-1,3-benzoxazin-8-yl]-5-fluoro-2-(3-oxa-8-azabicyclo[3.2.1]octan-8-yl)benzoic acid], the EC50 turned out to be 9.8 nM.
Compound `COc1ncc(-c2cc(Cl)c(C(=O)N3COc4c(cccc4-c4cc(N5C6CCC5COC6)c(C(=O)O)cc4F)C3)c(Cl)c2)c2nnn(C)c12` [Compound 3-27, 4-[3-[2,6-Dichloro-4-(4-methoxy-3-methyltriazolo[4,5-c]pyridin-7-yl)benzoyl]-2,4-dihydro-1,3-benzoxazin-8-yl]-5-fluoro-2-(3-oxa-8-azabicyclo[3.2.1]octan-8-yl)benzoic acid] gave an EC50 of 8.8 nM.
Compound `COCCn1cc(-c2cc(Cl)c(C(=O)N3COc4c(cccc4-c4ccc(C(=O)O)c(N5CCOCC5)c4)C3)c(Cl)c2)cn1` [Compound 3-28, 4-[3-[2,6-Dichloro-4-[1-(2-methoxyethyl)pyrazol-4-yl]benzoyl]-2,4-dihydro-1,3-benzoxazin-8-yl]-2-morpholin-4-ylbenzoic acid] showed an EC50 of 2.1 nM.
On to `COC1CN(c2cc(Cl)c(C(=O)N3COc4c(cccc4-c4cc(N5C6CCC5COC6)c(C(=O)O)cc4F)C3)c(Cl)c2)C1` [Compound 4-1, 4-[3-[2,6-Dichloro-4-(3-methoxyazetidin-1-yl)benzoyl]-2,4-dihydro-1,3-benzoxazin-8-yl]-5-fluoro-2-(3-oxa-8-azabicyclo[3.2.1]octan-8-yl)benzoic acid], for which the EC50 amounted to 3.1 nM.
Take `CCOC1(C)CN(c2cc(Cl)c(C(=O)N3COc4c(cccc4-c4cc(N5C6CCC5COC6)c(C(=O)O)cc4F)C3)c(Cl)c2)C1` [Compound 4-2, 4-[3-[2,6-Dichloro-4-(3-ethoxy-3-methylazetidin-1-yl)benzoyl]-2,4-dihydro-1,3-benzoxazin-8-yl]-5-fluoro-2-(3-oxa-8-azabicyclo[3.2.1]octan-8-yl)benzoic acid]: the EC50 was 1.2 nM.
The compound `CCC1(OC)CN(c2cc(Cl)c(C(=O)N3COc4c(cccc4-c4cc(N5C6CCC5COC6)c(C(=O)O)cc4F)C3)c(Cl)c2)C1` [Compound 4-3, 4-[3-[2,6-Dichloro-4-(3-ethyl-3-methoxyazetidin-1-yl)benzoyl]-2,4-dihydro-1,3-benzoxazin-8-yl]-5-fluoro-2-(3-oxa-8-azabicyclo[3.2.1]octan-8-yl)benzoic acid] showed an EC50 of 1.7 nM.
The figure for `COCC1CN(c2cc(Cl)c(C(=O)N3COc4c(cccc4-c4cc(N5C6CCC5COC6)c(C(=O)O)cc4F)C3)c(Cl)c2)C1` [Compound 4-4, 4-[3-[2,6-Dichloro-4-[3-(methoxymethyl)azetidin-1-yl]benzoyl]-2,4-dihydro-1,3-benzoxazin-8-yl]-5-fluoro-2-(3-oxa-8-azabicyclo[3.2.1]octan-8-yl)benzoic acid] is 3.2 nM; for `COC1(C)CN(c2cc(Cl)c(C(=O)N3COc4c(cccc4-c4cc(N5C6CCC5COC6)c(C(=O)O)cc4F)C3)c(Cl)c2)C1` [Compound 4-5, 4-[3-[2,6-Dichloro-4-(3-methoxy-3-methylazetidin-1-yl)benzoyl]-2,4-dihydro-1,3-benzoxazin-8-yl]-5-fluoro-2-(3-oxa-8-azabicyclo[3.2.1]octan-8-yl)benzoic acid] it is 1.3 nM.
In the case of `O=C(O)c1cc(F)c(-c2cccc3c2OCN(C(=O)c2c(Cl)cc(N4CC5(COC5)C4)cc2Cl)C3)cc1N1C2CCC1COC2` [Compound 4-6, 4-[3-[2,6-Dichloro-4-(2-oxa-6-azaspiro[3.3]heptan-6-yl)benzoyl]-2,4-dihydro-1,3-benzoxazin-8-yl]-5-fluoro-2-(3-oxa-8-azabicyclo[3.2.1]octan-8-yl)benzoic acid], the response was half-maximal at 8 nM (EC50).
`O=C(O)c1cc(F)c(-c2cccc3c2OCN(C(=O)c2c(Cl)cc(N4CC5(CCC5)C4)cc2Cl)C3)cc1N1C2CCC1COC2` [Compound 4-7, 4-[3-[4-(2-Azaspiro[3.3]heptan-2-yl)-2,6-dichlorobenzoyl]-2,4-dihydro-1,3-benzoxazin-8-yl]-5-fluoro-2-(3-oxa-8-azabicyclo[3.2.1]octan-8-yl)benzoic acid] came in with an EC50 of 3.3 nM.
As to `O=C(O)c1cc(F)c(-c2cccc3c2OCN(C(=O)c2c(Cl)cc(N4CCN5CCC[C@@H]5C4)cc2Cl)C3)cc1N1C2CCC1COC2` [Compound 4-9, 4-[3-[4-[(8aR)-3,4,6,7,8,8a-Hexahydro-1H-pyrrolo[1,2-a]pyrazin-2-yl]-2,6-dichlorobenzoyl]-2,4-dihydro-1,3-benzoxazin-8-yl]-5-fluoro-2-(3-oxa-8-azabicyclo[3.2.1]octan-8-yl)benzoic acid], it took 2.2 nM to reach a half-maximal effect (EC50).
With `O=C(O)c1cc(F)c(-c2cccc3c2OCN(C(=O)c2c(Cl)cc(N4CCN(C5CCOC5)CC4)cc2Cl)C3)cc1N1C2CCC1COC2` (centres unmarked) [Compound 4-10, 4-[3-[2,6-Dichloro-4-[4-(oxolan-3-yl)piperazin-1-yl]benzoyl]-2,4-dihydro-1,3-benzoxazin-8-yl]-5-fluoro-2-(3-oxa-8-azabicyclo[3.2.1]octan-8-yl)benzoic acid], the EC50 was 4.2 nM.
The figure for `O=C(O)c1cc(F)c(-c2cccc3c2OCN(C(=O)c2c(Cl)cc(N4CCNC5(CC5)C4)cc2Cl)C3)cc1N1C2CCC1COC2` [Compound 4-11, 4-[3-[2,6-Dichloro-4-(4,7-diazaspiro[2.5]octan-7-yl)benzoyl]-2,4-dihydro-1,3-benzoxazin-8-yl]-5-fluoro-2-(3-oxa-8-azabicyclo[3.2.1]octan-8-yl)benzoic acid] is 25 nM; for `O=C(O)c1cc(F)c(-c2cccc3c2OCN(C(=O)c2c(Cl)cc(N4CCN(C5CC5)CC4)cc2Cl)C3)cc1N1C2CCC1COC2` [Compound 4-12, 4-[3-[2,6-Dichloro-4-(4-cyclopropylpiperazin-1-yl)benzoyl]-2,4-dihydro-1,3-benzoxazin-8-yl]-5-fluoro-2-(3-oxa-8-azabicyclo[3.2.1]octan-8-yl)benzoic acid] it is 2.1 nM; for `O=C(O)c1cc(F)c(-c2cccc3c2OCN(C(=O)c2c(Cl)cc(N4CCN5CCOC[C@@H]5C4)cc2Cl)C3)cc1N1C2CCC1COC2` [Compound 4-13, 4-[3-[4-[(9aS)-3,4,6,7,9,9a-Hexahydro-1H-pyrazino[2,1-c][1,4]oxazin-8-yl]-2,6-dichlorobenzoyl]-2,4-dihydro-1,3-benzoxazin-8-yl]-5-fluoro-2-(3-oxa-8-azabicyclo[3.2.1]octan-8-yl)benzoic acid] it is 5.8 nM.
As for `O=C(O)c1cc(F)c(-c2cccc3c2OCN(C(=O)c2c(Cl)cc(N4CCN5CCOC[C@H]5C4)cc2Cl)C3)cc1N1C2CCC1COC2` [Compound 4-14, 4-[3-[4-[(9aR)-3,4,6,7,9,9a-Hexahydro-1H-pyrazino[2,1-c][1,4]oxazin-8-yl]-2,6-dichlorobenzoyl]-2,4-dihydro-1,3-benzoxazin-8-yl]-5-fluoro-2-(3-oxa-8-azabicyclo[3.2.1]octan-8-yl)benzoic acid], the response was half-maximal at 9 nM (EC50).
The figure for `CC(C)(O)CN1CCN(c2cc(Cl)c(C(=O)N3COc4c(cccc4-c4cc(N5C6CCC5COC6)c(C(=O)O)cc4F)C3)c(Cl)c2)CC1` [Compound 4-15, 4-[3-[2,6-Dichloro-4-[4-(2-hydroxy-2-methylpropyl)piperazin-1-yl]benzoyl]-2,4-dihydro-1,3-benzoxazin-8-yl]-5-fluoro-2-(3-oxa-8-azabicyclo[3.2.1]octan-8-yl)benzoic acid] is 3.1 nM; for `O=C(O)c1cc(F)c(-c2cccc3c2OCN(C(=O)c2c(Cl)cc(N4CCN(CC5CCCO5)CC4)cc2Cl)C3)cc1N1C2CCC1COC2` (centres unmarked) [Compound 4-16, 4-[3-[2,6-Dichloro-4-[4-(oxolan-2-ylmethyl)piperazin-1-yl]benzoyl]-2,4-dihydro-1,3-benzoxazin-8-yl]-5-fluoro-2-(3-oxa-8-azabicyclo[3.2.1]octan-8-yl)benzoic acid] it is 2.9 nM.
The figure for `O=C(O)c1cc(F)c(-c2cccc3c2OCN(C(=O)c2c(Cl)cc(N4C[C@@H]5C[C@H]4CO5)cc2Cl)C3)cc1N1C2CCC1COC2` [Compound 4-17, 4-[3-[2,6-Dichloro-4-[(1S,4S)-2-oxa-5-azabicyclo[2.2.1]heptan-5-yl]benzoyl]-2,4-dihydro-1,3-benzoxazin-8-yl]-5-fluoro-2-(3-oxa-8-azabicyclo[3.2.1]octan-8-yl)benzoic acid] is 4 nM.

Usually EC50 stands for the concentration needed to bring the measured effect to its halfway point.
